# Columns and labels:
# Type in all cases: in vivo
# [1] = system: barnyardgrass (Echinochloa crus-galli); assay: Test B flooded paddy test; settings: 250 g ai/ha, Flood, visual rating on scale of 0 to 100 where 0 is no effect and 100 is complete control, 13 to 15 d after treatment; for pest or weed control at 250 g/ha: Echinochloa crus-galli, 360 h, read-out: Plant response rating, Barnyardgrass
# How it was run: (§1)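 Ratings use a 0-100 visual scale, where 100 is complete control, and compare treated plants with controls after 13 to 15 d of greenhouse growth. Compound went straight into paddy water kept 3 cm over the soil surface, applied to seedlings at the 2-leaf stage.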
# [2] = system: ducksalad (Heteranthera limosa); assay: Test B flooded paddy test; settings: 250 g ai/ha, Flood, visual rating on scale of 0 to 100 where 0 is no effect and 100 is complete control, 13 to 15 d after treatment; for pest or weed control at 250 g/ha: Heteranthera limosa, 360 h, read-out: Plant response rating, Ducksalad
# How it was run: as §1
# [3] = system: rice (Oryza sativa); assay: Test B flooded paddy test; settings: 250 g ai/ha, Flood, visual rating on scale of 0 to 100 where 0 is no effect and 100 is complete control, 13 to 15 d after treatment; for plant injury at 250 g/ha: Oryza sativa, 360 h, read-out: Plant response rating, Rice
# How it was run: as §1
# [4] = system: sedge, umbrella (small-flower umbrella sedge, Cyperus difformis); assay: Test B flooded paddy test; settings: 250 g ai/ha, Flood, visual rating on scale of 0 to 100 where 0 is no effect and 100 is complete control, 13 to 15 d after treatment; for pest or weed control at 250 g/ha: Cyperus difformis, 360 h, read-out: Plant response rating, Sedge, Umbrella
# How it was run: as §1
# [5] = system: morningglory (Ipomoea coccinea); assay: Test C greenhouse herbicide test, pre- and postemergence
# How it was run: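 Percent-control ratings (0 none, 100 complete) came from visual comparison with controls held alongside in the greenhouse for 13–15 d. Treatments covered soil application at sowing and foliar application to young plants 2–18 cm tall.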
# [6] = system: chickweed (common chickweed, Stellaria media); assay: Test C greenhouse herbicide test, postemergence
# How it was run: (§2)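 Greenhouse postemergence spray on plants 2–18 cm tall; response judged visually after 13–15 d relative to untreated controls using a 0 (none) to 100 (full control) scale.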
# [7] = system: kochia (Kochia scoparia); assay: Test C greenhouse herbicide test, postemergence
# How it was run: as §2
# [8] = system: oat, wild (wild oat, Avena fatua); assay: Test C greenhouse herbicide test, postemergence
# How it was run: as §2
# [9] = system: blackgrass (Alopecurus myosuroides); assay: Test A greenhouse herbicide test, postemergence; settings: for Blackgrass plant response rating: 0 to 100 scale, 0 is no effect, 100 is complete control
# How it was run: (§3)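 Seedlings in a loam soil and sand mix received formulated compound postemergence at the one- to two-leaf stage. Greenhouse holding lasts approximately 10 d, then injury is scored visually relative to untreated plants, 0 meaning no effect and 100 complete control.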
# [10] = system: galium (catchweed bedstraw, Galium aparine); assay: Test A greenhouse herbicide test, postemergence; settings: for Galium plant response rating: 0 to 100 scale, 0 is no effect, 100 is complete control
# How it was run: as §3
# [11] = Postemergence, 31 g ai/ha, 0 to 100 scale (0 no effect, 100 complete control)
# [12] = Postemergence, 125 g ai/ha, scale 0 to 100, 0 is no effect, 100 is complete control
# [13] = Postemergence, 250 g ai/ha, scale 0 to 100, 0 no effect, 100 complete control, 13 to 15 d
# [14] = Preemergence, 31 g ai/ha, scale 0 to 100, 0 is no effect, 100 is complete control
# [15] = Preemergence, 62 g ai/ha, scale 0 to 100, 0 is no effect, 100 is complete control
# [16] = Preemergence, 125 g ai/ha, scale 0 to 100, 0 is no effect, 100 is complete control
# [17] = Preemergence, 250 g ai/ha, scale 0 to 100, 0 no effect, 100 complete control
# [18] = postemergence, 62 g ai/ha, scale 0 to 100, 0 no effect, 100 complete control
# [19] = 125 g ai/ha, visual rating after approx. 10 d, 0 to 100 scale (0 no effect, 100 complete control)
# [20] = 125 g ai/ha, 0 to 100 scale where 0 is no effect and 100 is complete control
# [21] = 500 g ai/ha, visual rating after approx. 10 d, 0 to 100 scale (0 no effect, 100 complete control)
# [22] = Postemergence, 31 g ai/ha, scale 0 to 100 (0 no effect, 100 complete control)
# [23] = Postemergence, 62 g ai/ha, 0 to 100 scale (0 no effect, 100 complete control)
# [24] = postemergence, 125 g ai/ha, scale 0 to 100, 0 no effect, 100 complete control
SMILES,"Morningglory plant response rating [5, 11]","Plant response rating, Morningglory [5, 12]","Plant response rating, Morningglory [5, 13]","Plant response rating, Morningglory [5, 14]","Plant response rating, Morningglory [5, 15]","Plant response rating, Morningglory [5, 16]","Morningglory plant response rating [5, 17]","Morningglory plant response rating [5, 18]","Chickweed plant response rating [6, 11]","Plant response rating, Chickweed [6, 12]","Plant response rating, Chickweed [6, 13]","Chickweed plant response rating [6, 18]","Kochia plant response rating [7, 11]","Plant response rating, Kochia [7, 12]","Plant response rating, Kochia [7, 13]","Kochia plant response rating [7, 18]","Oat, Wild plant response rating [8, 11]","Plant response rating, Oat, Wild [8, 12]","Plant response rating, Oat, Wild [8, 13]","Oat, Wild plant response rating [8, 18]",also measured
"Cc1cc(C)c2sc(C)c(-c3c(O)c(C)nn(C)c3=O)c2c1 [Compound 2, 5-hydroxy-2,6-dimethyl-4-(2,5,7-trimethylbenzo[b]thien-3-yl)-3(2H)-pyridazinone]",100,100,100,98,100,98,100,100,95,95,98,95,50,65,75,55,75,90,85,80,pest or weed control at 250 g/ha [1]: 30%; pest or weed control at 250 g/ha [2]: 80%; plant injury at 250 g/ha [3]: 35%; pest or weed control at 250 g/ha [4]: 85%
"CCc1oc2ccc(C)cc2c1-c1c(O)c(C)nn(C)c1=O [Compound 10, 4-(2-ethyl-5-methyl-3-benzofuranyl)-5-hydroxy-2,6-dimethyl-3(2H)-pyridazinone]",55,100,100,0,0,25,55,90,90,90,90,90,60,95,95,85,5,5,25,5,pest or weed control at 250 g/ha [1]: 0%; pest or weed control at 250 g/ha [2]: 30%; plant injury at 250 g/ha [3]: 0%; pest or weed control at 250 g/ha [4]: 0%
"Cc1nn(C)c(=O)c(-c2cccc3ccccc23)c1O [Compound 11, 5-hydroxy-2,6-dimethyl-4-(1-naphthalenyl)-3(2H)-pyridazinone]",70,90,98,100,100,100,100,80,60,85,90,65,85,100,100,95,40,60,70,45,pest or weed control at 250 g/ha [1]: 0%; pest or weed control at 250 g/ha [2]: 0%; plant injury at 250 g/ha [3]: 0%; pest or weed control at 250 g/ha [4]: 0%
Cn1nc(Br)c(O)c(-c2cccc3ccccc23)c1=O [Compound 20],100,100,100,85,98,98,100,100,90,100,100,98,50,90,100,80,0,25,40,5,"Plant response rating, Blackgrass [9, 19]: 30; Blackgrass plant response rating ([9]; 500 g ai/ha): 40; Plant response rating, Galium [10, 19]: 90; Galium plant response rating ([10]; 500 g ai/ha): 100; Plant response rating, Barnyardgrass [1]: 0; Plant response rating, Ducksalad [2]: 50; Plant response rating, Rice [3]: 0; Plant response rating, Sedge, Umbrella [4]: 50"
Cc1cc(C)c2ccccc2c1-c1c(O)c(C)nn(C)c1=O [Compound 21],85,100,100,95,98,100,100,100,95,100,100,100,80,95,100,90,90,98,100,98,"Plant response rating, Blackgrass [9, 19]: 90; Blackgrass plant response rating ([9]; 500 g ai/ha): 90; Plant response rating, Galium [10, 19]: 100; Galium plant response rating ([10]; 500 g ai/ha): 100; Plant response rating, Barnyardgrass [1]: 70; Plant response rating, Ducksalad [2]: 0; Plant response rating, Rice [3]: 55; Plant response rating, Sedge, Umbrella [4]: 65"
COC(=O)Oc1c(C)nn(C)c(=O)c1-c1ccc(Br)c2ccccc12 [Compound 145],–,–,100,75,80,98,100,–,–,–,–,–,–,–,100,–,–,–,100,–,"Plant response rating, Blackgrass [9, 20]: 40; Plant response rating, Blackgrass [9, 21]: 80; Plant response rating, Galium [10, 20]: 100; Plant response rating, Galium [10, 21]: 100; Plant response rating, Barnyardgrass [1]: 0; Plant response rating, Ducksalad [2]: 0; Plant response rating, Rice [3]: 0; Plant response rating, Sedge, Umbrella [4]: 0; Plant response rating, Morningglory [5, 22]: 95; Morningglory plant response rating [5, 23]: 98; Morningglory plant response rating [5, 24]: 100; Plant response rating, Kochia [7, 22]: 95; Kochia plant response rating [7, 23]: 98; Kochia plant response rating [7, 24]: 100; Plant response rating, Oat, Wild [8, 22]: 95; Oat, Wild plant response rating [8, 23]: 95; Oat, Wild plant response rating [8, 24]: 95"

# Reference: patent publication US10597388B2, “Pyridazinone herbicides” (FMC CORPORATION, priority 2014, dated 2020)
